Results taken from article PMC11574021, “CEP192 localises mitotic Aurora-A activity by priming its interaction with TPX2” (The EMBO Journal, 2024).

Legend:
[1] = test system: TCTP-pS46 in RPE1 p53-/- cells; assay: Western blot densitometry, TCTP-pS46, RPE1 p53-/-; assay type: cell-based, Homo sapiens; settings: mitotic RPE1 p53-/- lysates, inhibitor 30 min
Protocol: (§1) For measuring monopolar spindle diameter and counting centriolar foci by immunofluorescence, cells were treated with 10 µM STLC for 1 h and 4 h prior to fixation, respectively.
(§2) Drugs were resuspended in DMSO to the stock concentrations indicated in square brackets.
(§3) Cells were lysed on ice for 30 min in lysis buffer (50 mM tris pH 8.0, 300 mM NaCl, 0.2%(v/v) NP-40, 10%(v/v) glycerol, protease inhibitor cocktail C, phosphatase inhibitor cocktail 3 (Sigma, 1:200 dilution), 100 nM okadaic acid (Enzo, ALX-350-003-C100)). Lysates were then centrifuged at 14,000 × g, 15 min, 4 °C, the supernatants were transferred to a fresh tube, and the pellet was discarded. Protein concentrations were measured by Bradford assay using Protein Assay Dye Reagent Concentrate (Bio-Rad Laboratories, 5000006). NuPage LDS sample buffer, supplemented with NuPAGE sample reducing agent (Invitrogen) were added prior to boiling for 10 min at 90 °C. […] Nitrocellulose was then blocked in 5% milk (wt/v) in TBS, 0.1% Tween (v/v) (TBST) for 1 h. Primary and secondary antibodies were diluted in 5% milk, TBST and incubated overnight at 4 °C or for 1 h at room temperature, respectively. […]
(§4) Densitometric quantification of western blots was also performed in ImageJ. Intensity was measured in a rectangular region of interest (ROI) around each band. […] An adjacent region was also measured to account for background intensity.

[2] = test system: PLK1-pT210 in RPE1 p53-/- cells; assay: Western blot densitometry, PLK1-pT210, RPE1 p53-/-; assay type: cell-based, Homo sapiens; settings: mitotic RPE1 p53-/- lysates, inhibitor 30 min
Protocol: as §1, §2, §3, §4

Aurora-A CAKD = molecular target: T1, Aurora-A CAKD (Homo sapiens, UniProt O14965, C290A/C393A); assay: Fluorescence anisotropy competition with FAM-TACC3 522-536; assay type: binding; settings: in words
T1 construct: 25 μM Aurora-A kinase domain (phosphorylated or unphosphorylated C290A C393A 122–403); His (N, cleaved yes); made in house; host or cells: E. coli
T1 sequence (O14965 122-403 C290A/C393A): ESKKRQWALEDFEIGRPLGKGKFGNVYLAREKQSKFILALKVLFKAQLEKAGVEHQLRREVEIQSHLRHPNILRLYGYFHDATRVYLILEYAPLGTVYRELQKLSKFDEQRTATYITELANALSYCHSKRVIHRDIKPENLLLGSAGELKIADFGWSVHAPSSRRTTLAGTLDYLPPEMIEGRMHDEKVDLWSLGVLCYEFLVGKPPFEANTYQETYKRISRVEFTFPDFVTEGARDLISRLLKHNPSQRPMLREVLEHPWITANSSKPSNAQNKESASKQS
Protocol: Assays were performed in 25 mM HEPES pH 7.5, 150 mM NaCl, 2 mM DTT, 5 mM MgCl2, 0.01% Tween 20. For CEP192 and TPX2 competition assays 10 μM Aurora-A kinase domain (phosphorylated or unphosphorylated C290A C393A 122–403) was preincubated on ice with 100 nM FAM-TPX2 7-43 or 100 nM FAM-CEP192 501–533. For TACC3 competition, due to weaker binding, 25 μM Aurora-A kinase domain (phosphorylated or unphosphorylated C290A C393A 122–403) was preincubated with 100 nM FAM-TACC3 522-536. Serial dilutions of competitor (CEP192) were performed in triplicate into a low volume 384-well black plate, before the premixed Aurora-A and tracer were added. A control row included no tracer. Plates were left incubating for 1 h at room temperature before the fluorescence anisotropy was measured using a HIDEX plate reader, with excitation at 485 nm and emission at 535 nm. […]
(§5) Fluorescence anisotropy data were processed using Microsoft Excel to calculate intensity and anisotropy using the equation listed in (Yeo et al, [2013]). The IC50 and Kd values were calculated using Origin (OriginLab) where the data fitted to a sigmoid and are summarised in Appendix Table S3.

[3] = molecular target: T2, unphosphorylated Aurora-A CAKD (Homo sapiens, UniProt O14965, C290A/C393A); assay: Fluorescence anisotropy competition with FAM-TPX2 7-43; assay type: binding; settings: in words, Aurora-A CAKD
T2 construct: 10 μM Aurora-A kinase domain (phosphorylated or unphosphorylated C290A C393A 122–403); His (N, cleaved yes); made in house; host or cells: E. coli RIL, co-expressed with lambda phosphatase
T2 sequence (O14965 122-403 C290A/C393A): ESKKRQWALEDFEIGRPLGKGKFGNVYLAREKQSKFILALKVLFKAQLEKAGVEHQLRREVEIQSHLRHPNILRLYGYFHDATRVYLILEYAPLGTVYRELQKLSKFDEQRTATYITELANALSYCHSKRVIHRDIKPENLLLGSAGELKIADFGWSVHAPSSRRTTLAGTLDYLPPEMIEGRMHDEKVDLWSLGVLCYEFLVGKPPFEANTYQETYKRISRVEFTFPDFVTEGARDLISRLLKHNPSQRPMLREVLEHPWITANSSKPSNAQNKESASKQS
Protocol: Assays were performed in 25 mM HEPES pH 7.5, 150 mM NaCl, 2 mM DTT, 5 mM MgCl2, 0.01% Tween 20. For CEP192 and TPX2 competition assays 10 μM Aurora-A kinase domain (phosphorylated or unphosphorylated C290A C393A 122–403) was preincubated on ice with 100 nM FAM-TPX2 7-43 or 100 nM FAM-CEP192 501–533. For TACC3 competition, due to weaker binding, 25 μM Aurora-A kinase domain (phosphorylated or unphosphorylated C290A C393A 122–403) was preincubated with 100 nM FAM-TACC3 522-536. Serial dilutions of competitor (CEP192) were performed in triplicate into a low volume 384-well black plate, before the premixed Aurora-A and tracer were added. A control row included no tracer. Plates were left incubating for 1 h at room temperature before the fluorescence anisotropy was measured using a HIDEX plate reader, with excitation at 485 nm and emission at 535 nm. For direct binding experiments, the assay was performed as above, but the Aurora-A (122–403 C290A C393A or point mutants) was diluted across the plate from high to low concentration, before the addition of 50 nM tracer (FAM-CEP192 501–533) to three replicate rows. Buffer only was added to the control row.
as §5

[4] = molecular target: T3, phosphorylated Aurora-A CAKD (Homo sapiens, UniProt O14965, C290A/C393A); assay: ADP-Glo kinase assay, kemptide substrate; assay type: biochemical; settings: ADP-Glo, phosphorylated Aurora-A CAKD, kemptide; in words
T3 construct: 10 nM Aurora-A 122–403 C290A C393A phosphorylated protein; His (N, cleaved yes); made in house; host or cells: E. coli B834 (no lambda phosphatase)
T3 sequence (O14965 122-403 C290A/C393A): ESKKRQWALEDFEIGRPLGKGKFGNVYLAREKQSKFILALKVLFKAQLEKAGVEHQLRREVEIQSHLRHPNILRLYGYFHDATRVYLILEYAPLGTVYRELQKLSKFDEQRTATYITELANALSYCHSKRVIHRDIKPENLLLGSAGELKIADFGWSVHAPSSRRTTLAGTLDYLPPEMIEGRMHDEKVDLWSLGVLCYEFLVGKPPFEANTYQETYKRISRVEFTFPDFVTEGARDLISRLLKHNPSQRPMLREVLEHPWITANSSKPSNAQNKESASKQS
Protocol: Reactions were initiated by the addition of 10 μM ATP and 100 μM kemptide as substrate (Cambridge Bioscience Ltd). The reactions were incubated at room temperature for 60 min before 5 μl was transferred into 5 ul of ADP-Glo Reagent (Promega) in a 384-well low volume low binding plate (Greiner Bio-one). After a further 40 min at room temperature, 10 μl of kinase detection reagent was added to each well, and the reaction was allowed to incubate for an additional 30 min. Luminescence was measured on a HIDEX Sense plate reader (HIDEX) using a 1 s integration time. Control data was subtracted from the luminescence and three repeats were averaged before being fitted to a sigmoidal plot using Origin (OriginLab), where IC50 and EC50 values were calculated.

Aurora-A (Homo sapiens) = Aurora-A (Homo sapiens) (UniProt O14965); assay: fluorescence polarisation; settings: cited from earlier work
Aurora-A (Homo sapiens), sequence (O14965 whole entry): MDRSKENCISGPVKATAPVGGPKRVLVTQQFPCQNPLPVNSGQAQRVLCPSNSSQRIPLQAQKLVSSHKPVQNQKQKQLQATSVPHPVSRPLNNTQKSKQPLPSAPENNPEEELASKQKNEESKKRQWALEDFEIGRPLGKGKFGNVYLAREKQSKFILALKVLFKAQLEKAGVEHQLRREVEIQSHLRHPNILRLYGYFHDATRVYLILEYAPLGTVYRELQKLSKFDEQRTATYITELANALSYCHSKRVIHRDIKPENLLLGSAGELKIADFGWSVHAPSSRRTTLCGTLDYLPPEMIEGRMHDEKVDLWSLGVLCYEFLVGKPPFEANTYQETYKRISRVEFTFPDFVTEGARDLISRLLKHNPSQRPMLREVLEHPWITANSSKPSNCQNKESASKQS

CC[C@@H]1C(=O)N(C)c2cnc(Nc3ccc(C(=O)NC4CCN(C)CC4)cc3OC)nc2N1C1CCCC1 [BI2536]
phosphorylation of TCTP (pS46) [1]: decreased
T-loop phosphorylation of PLK1 (pT210) [2]: decreased

IWSPTCERRTCECHESIEKNKDKTDLPQSVVYQNEEGRWVTDLAYYTSFNSKQNLNVSLSDEMNEDFRSGSEAFDLIAQDEEEFNKEHQFIQ [CEP192 442-533, recombinant human CEP192 aa 442–533]
competition for binding with FAM-TACC3 522-536 (Aurora-A CAKD): competed for binding with FAM-TACC3_522-536
competition for binding with FAM-TPX2 7-43 [3]: competed for binding with FAM-TPX2_7-43
effect on Aurora-A kinase activity [4]: partially inhibited the activity

TACC3 519-563 (from UniProt Q9Y6A5)
Kd (Aurora-A (Homo sapiens)): 6 µM
